Experimental data taken from US20240226191A1, “COMPOSITIONS AND METHODS FOR TREATING DISEASE” (MICROBA IP PTY LTD, priority 2021, published 2024).
“Also recorded” adds a separate entry of the source.

Legend:
male BALB/c mice = experiment: Acute murine model of TNBS-induced colitis; format: in vivo, mouse
Procedure: Groups of 5 or 10 male BALB/c mice were used. Mice were fasted overnight (Day 1) before 2,4,6-Trinitrobenzene sulfonic acid solution (TNBS challenge on Day 2. Distal colitis was induced by intracolonic instillation of TNBS (1 mg in 0.1 mL 50% ethanol) after which, animals were kept in a vertical position for 30 seconds to ensure that the solution remained in the colon. For the treatments, mice were orally gavaged with 200 μl of M. faecis MH23-3 at 1×10^9 cells/day or vehicle (sterile glycerol and phosphate salt solution) starting from Day 1 (i.e., 1 day before TNBS) to Day 5 for a total of 5 consecutive days (Days 1-5). The positive control Cyclosporin A was given at 75 mg/kg by oral gavage once daily from Day 1 (i.e., 1 day before TNBS) to Day 4 for a total of 4 consecutive days (Days 1-4). On the Day of TNBS challenge, vehicle, M. faecis MH-23.3 and Cyclosporine A were given at 2 hours before TNBS. Animals were sacrificed on Day 5; blood was collected from all animals by cardiac puncture. The colon tissue was also harvested and snap frozen with liquid nitrogen for cytokine measurement. On Day 5, the mice were euthanized by CO2 asphyxiation. Each colon was removed, rinsed, and then cut from 4 cm from the anus. The tissue sections were fixed in 10% formalin and kept in 70% ethanol for histopathology. […]

[1] = test system: IL-23 mediated activation of STAT3; experiment: HEK-Blue IL-23 reporter cell line STAT3 inducible SEAP reporter assay; format: cell-based, human; conditions: cell free culture supernatant (strains grown in TY medium); tofacitinib as inhibitor control
Procedure: To assess STAT3 suppressive activity, three independent colonies were inoculated and grown until early stationary phase. Then, each seed culture broth was used to inoculate two technical replicates each generating six technical replicates from three biological replicates. The technical replicates were grown until early stationary phase and then cell free culture supernatant was harvested as previously described (Giri et al., 2019). Culture supernatants were size fractionated by passing through a 3 kDa CENTRICON® column according to the manufacturer's (Merck Millipore) instructions.
STAT3 activity was assessed using the HEK Blue IL-23 cell line (Invivogen). Briefly, 50,000 cells per well were seeded in triplicate in a 96-well plate 24 hours prior to the start of the assay. Bacteria supernatant or sterile bacterial medium were mixed at a final concentration of 10%, 25%, or 50% v/v with recombinant human IL-23 (rhIL-23, R&D systems) at a final concentration of 5 ng/mL. This mixture was then added directly to the cells and incubated at 37° C. for 6 hours. […] STAT3 regulated SEAP reporter activity was assessed using Quanti Blue solution as recommended by the manufacturer (Invivogen). […] Cytotoxicity was assessed using MTT assay. […] Cytotoxicity was assessed by measuring absorbance at 540 nm as recommended by the manufacturer (Invitrogen, Thermo Fisher, Australia).

[2] = test system: mild to moderate flares of ulcerative colitis; conditions: cited from earlier work
T84 cells = experiment: TEER recovery of barrier integrity after IFNγ (Maestro Pro system); format: cell-based; conditions: IFNγ for 72 hours, then treatment; extract relative to YG/V control
Procedure: The ability of MH23 to promote recovery of barrier integrity was also assessed by using the Maestro Pro system. Briefly, T84 cells were grown in (DMEM/F12) supplemented with 10% heat-inactivated foetal bovine serum and 1% Penicillin-Streptomycin in T75 flasks at 37° C., 5% C02 until approximately 75% confluent. Cells were seeded at a density of 0.1×10^6 cells in a total of 0.2 mL/well in 96-well CytoView-Z plates and incubated at 37° C., 5% C02 in the Maestro Pro system (Axion BioSystems, Atlanta, GA, USA). Media was refreshed every three days. Once stabile TEER measurements had been established (approximately 100 h after seeding), cells were stimulated with recombinant human IFNγ (100 ng/mL; R&D systems, Minneapolis, MN, USA). At 72 h post-stimulation, cells were washed with dPBS (ThermoFisher Scientific, Waltham, MA, USA) and media was replaced with DMEM/F12 only, or DMEM/F12 supplemented with Pyrrolidine dithiocarbamate (PDTC; 50 μM), 1×YG/V media control or 1×MH23-3 bacterial culture supernatant extracts prepared using Amberlite XAD-7 resin as previously outlined. All conditions were analysed as quadruplicates. At 5 h post-treatment, TEER measurements were recorded, and the observed effect of treatment was presented as the percentage difference in TEER value compared to the control (untreated T84 cells). Statistical significance was determined by unpaired t-test.

[3] = test system: IL-8 secretion in the human gut epithelial HCT116 cell line; experiment: IL-8 secretion ELISA in IL-1β treated HCT116 cells (NF-κB activation); format: cell-based; conditions: HCT116 cells treated with IL-1β; cell free CS relative to the medium control
Procedure: For the ELISA assays, 1×10^4 cells/well of HCT116 cells were seeded in duplicate 96 well plates. HCT116 cells were treated with IL-1β (10 ng) and indole-3-carbinol (5 μM) or culture supernatant (10% v/v) as appropriate and incubated at 37° C. for 16 hours. Then, cell supernatants were collected and analysed using an IL-8 human uncoated ELISA Kit according to the manufacturer's instructions.

C57BL/6 female mice [4] = experiment: Acute murine model of DSS-induced gut barrier dysfunction (3% DSS); format: in vivo, mouse
Procedure: (§1) M. faecis and F. prausnitzii strains were grown to early stationary phase in TY medium. The cell density of the individual cultures was calculated using a Helber Counting Chamber. To prepare the bacterial gavage solutions, individual cultures were centrifuged under a layer of sterile heavy mineral oil at 5,000 g for 10 minutes and the cell-free supernatant was then discarded. The cell pellets were washed in 1.5 mL of sterile anaerobic buffered diluent (38 mL/L each of salt solutions 2 & 3 (McSweeney et al., 2005), 1 mL/L of 0.1% (w/v) resazurin solution, 1 g/L L-cysteine) and then centrifuged again. Finally, the washed cell pellet was resuspended in half strength glycerol solution (15% v/v glycerol solution in anoxic buffered diluent) to a final concentration of 1×10^9 cells/mL, aliquoted and frozen at −80° C. until required. The viability of the cell preparations was confirmed by thawing a single aliquot and streaking on an agar plate. The identity and purity of the individual strain preparations was confirmed by whole genome sequencing.
(§2) Six-week-old C57BL/6 female mice purchased from Animal Resources Centres (Western Australia, Australia) were randomised and then co-housed for seven days prior to experimentation. To induce gut barrier dysfunction, mice were treated with 3% DSS ad libiteum in the drinking water for six days. Naïve age matched control mice were processed and received DSS free drinking water. All treatments started one day prior to provision of DSS and all mice were sacrificed two days after the final DSS treatment. For the treatments, mice were anesthetised with isofluorane and orally gavaged with 200 μl of bacterial preparations or vehicle control. Prednisone (2 mg/kg) was administered following anesthetisation by intraperitoneal injection. Body weights and stool consistency were recorded daily. Stool samples were collected daily. Following sacrifice, the colon, liver and spleen were collected for analysis. Blood was collected by cardiac puncture. In the therapeutic model, six-week-old C57BL/6 female mice purchased from Animal Resources Centres (Western Australia, Australia) were randomised and then co-housed for seven days prior to experimentation. To induce gut barrier dysfunction, mice were treated with 2.5% DSS ad libiteum in the drinking water for six days. Naïve age matched control mice were processed and received DSS free drinking water. All treatments started two days prior to completion of the DSS treatments and all mice were sacrificed five days after the final DSS treatment. For the treatments, mice were anesthetised with isofluorane and orally gavaged with 200 μl of bacterial preparations or vehicle control. Prednisone (2 mg/kg) was administered following anesthetisation by intraperitoneal injection. […]

C57BL/6 female mice [5] = experiment: Therapeutic model of DSS induced murine colitis (2.5% DSS); format: in vivo, mouse; conditions: 2.5% DSS therapeutic model
Procedure: as §1, §2

Q: With cyclosporine A as the compound, how does the TNBS-induced histological damage (male BALB/c mice) read?
A: Its TNBS-induced histological damage is “ameliorated”.

Q: Which “IL-23 mediated STAT3 activation (SEAP reporter activity)” value [1] does the source give for C[C@@H]1CCN(C(=O)CC#N)C[C@@H]1N(C)c1ncnc2[nH]ccc12 [tofacitinib] here?
A: Its value is “prevented; also recorded: inhibits”.

Q: With Nc1ccc(O)c(C(=O)O)c1 [Mesalmine] as the compound, how does the response rates [2] read?
A: The response rates was 40%-70%.

Q: With S=C(S)N1CCCC1 [PDTC, Pyrrolidine dithiocarbamate] as the compound, how does the “TEER after IFNγ treatment (restoration of barrier integrity)” value (T84 cells) read?
A: Its value is “ameliorated”.

Q: Which IL-8 secretion [3] does the source give for OCc1c[nH]c2ccccc12 [indole-3-carbinol] here?
A: Its IL-8 secretion is “prevented”.

Q: With C[C@]12C=CC(=O)C=C1CC[C@@H]1[C@@H]2C(=O)C[C@@]2(C)[C@H]1CC[C@]2(O)C(=O)CO [prednisone] as the compound, how does the “disease pathology / histopathological score” value (C57BL/6 female mice [4]) read?
A: Its value is “significant improvement”.

Q: What about the epithelial injury (C57BL/6 female mice [4]) of the same compound?
A: The epithelial injury was “ameliorated”.

Q: And the inflammation score (C57BL/6 female mice [4])?
A: Its inflammation score is “ameliorated”.

Q: What about the DSS-induced weight loss (C57BL/6 female mice [4]; daily treatment) of the same compound?
A: Its DSS-induced weight loss is “exacerbated”.

Q: And the epithelial injury (C57BL/6 female mice [5])?
A: The epithelial injury was “ameliorated”.

Q: What about the inflammation score (C57BL/6 female mice [5]) of the same compound?
A: Its inflammation score is “ameliorated”.

Q: What about the “pathology / histopathological score” value (C57BL/6 female mice [5]) of the same compound?
A: Its value is “ameliorated”.

Q: And the endoscopic disease activity (C57BL/6 female mice [5]; relative to the vehicle treatment group)?
A: The endoscopic disease activity was “significant reduction”.
